Patent US4597901A, “β-indolylalanyl or β-indolylglycinyl vasopressin antagonists” (SmithKline Beckman Corporation, priority 1984, dated 1986)
*1 amine or outer side, *2 acyl side, *3 side chain or, on linkers, in order; H or OH if unused. Where a SMILES comes first, the peptide text is derived from it. Bridges are numbered along the chain shown (N, C = ends). [ ]: non-standard residue; d: D form. The star is where a group is joined. X1 = O=C(CC1(S[*:2])CCCCC1)[*:1]; For = O=C*

Biological target: vasopressin receptors [V2 -receptors] (Sus scrofa, UniProt P32307)
Assay: biochemical
Excerpt: Details of the in vitro protocols are in F. L. Stassen et al., J. of Pharm. Exp. Ther. 233, 50-54 (1982) but the calculations of cyclase activity and binding potential at the receptor site are as follows:
Test Procedure for Binding Assay:
These values represent total and non-specific binding, respectively.

vasopressin receptors [V2 -receptors], sequence (P32307 whole entry): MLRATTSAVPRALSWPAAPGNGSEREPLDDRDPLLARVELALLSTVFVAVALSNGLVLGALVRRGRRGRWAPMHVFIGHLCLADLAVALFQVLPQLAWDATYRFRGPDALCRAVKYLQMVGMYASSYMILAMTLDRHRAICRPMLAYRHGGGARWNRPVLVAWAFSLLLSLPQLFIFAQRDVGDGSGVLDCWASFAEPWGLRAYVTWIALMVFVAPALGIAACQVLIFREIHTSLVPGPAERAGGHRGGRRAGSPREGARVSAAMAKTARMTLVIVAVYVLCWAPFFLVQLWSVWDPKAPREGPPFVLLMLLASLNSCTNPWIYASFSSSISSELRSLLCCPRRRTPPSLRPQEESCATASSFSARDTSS

Structure (SMILES)	Kb
CC(C)[C@@H]1NC(=O)[C@H](Cc2ccccc2)NC(=O)[C@@H](Cc2cn(C=O)c3ccccc23)NC(=O)CC2(CCCCC2)SSC[C@@H](C(=O)N2CCC[C@H]2C(=O)N[C@@H](CCCNC(=N)N)C(=O)NCC(N)=O)NC(=O)[C@H](CC(N)=O)NC1=O [D-Trp (For), [1-(β-mercapto-β,β-cyclopentamethylenepropionic acid)-2-D-tryptophan-(N-formyl)-4-valine-8-arginine]vasopressin] ([dW](For)FVNCPRG-NH2; linker N-5 via X1)	78 nM
CC(C)[C@@H]1NC(=O)[C@H](Cc2ccccc2)NC(=O)[C@H](Cc2cn(C=O)c3ccccc23)NC(=O)CC2(CCCCC2)SSC[C@@H](C(=O)N2CCC[C@H]2C(=O)N[C@@H](CCCNC(=N)N)C(=O)NCC(N)=O)NC(=O)[C@H](CC(N)=O)NC1=O [L-Trp (For)] (W(For)FVNCPRG-NH2; linker N-5 via X1)	840 nM
CC(C)[C@@H]1NC(=O)[C@H](Cc2ccccc2)NC(=O)[C@H](Cc2c[nH]c3ccccc23)NC(=O)CC2(CCCCC2)SSC[C@@H](C(=O)N2CCC[C@H]2C(=O)N[C@@H](CCCNC(=N)N)C(=O)NCC(N)=O)NC(=O)[C@H](CC(N)=O)NC1=O [L-Trp] (WFVNCPRG-NH2; linker N-5 via X1)	2100 nM
